For orientation: IC50 means the concentration needed to halve the response being measured. Broadly, the microsomal CLint is a measure of how fast metabolising enzymes remove a compound, apart from limits set by blood flow. High values mean faster metabolism, low ones greater metabolic stability.

Each structure is given as a SMILES string. Read-outs that look alike come from different tables or passages of the source.

Data set [1] has as its system DMS114 and SHP-77 human small cell lung cancer lines. Nature of the data set: Actual outcome of in vitro testing in both reference human SCLC lines. Format: cell-based. On the procedure: (§1) Briefly, cells were plated in plastic tissue culture plates and grown under standard conditions for each cell line, in carbon dioxide/oxygen atmosphere in plastic tissue culture plates, in the presence of COTI-2 or COTI-219 compounds at 35° C. for 3 days. Control cultures were treated with vehicle minus compound. Cells were counted after 3 days in culture and at a cell density of no more than 80%. The following cell lines, obtained from the National Cancer Institute, were tested: human SCLC cell lines DMS153, DMS114, SHP77; human NSCLC cell lines H226, A460, A560; human breast cancer cell lines T47D, MCF7; human colon cancer cell line HT29; and, human Leukemia cell lines K562, HL60.

The test system of data set [2] is SHP77. Description: Resistance testing over 5 generations, SHP77. Format: cell-based, human. The conditions noted are these: SHP77, 5 generations. On the procedure:
(§2) In order to evaluate the induction of resistance in vitro, compounds according to the invention were tested in head to head comparisons against conventional therapeutic agents Cisplatin® and Taxotere®. The compound designated COTI-4 (which is the subject of Applicant's co-pending U.S. provisional patent application entitled “Composition and Method for Treatment” filed Dec. 26, 2007) was also tested. The structure for COTI-4 is:
(§3) IC50 values were obtained using methods known to persons skilled in the art with two different human SCLC cell lines (DMS153 and SHP77) obtained from the National Cancer Institute. […] The procedure was repeated for a total of 5 generations. Emerging resistance was identified by increasing IC50 values in successive generations.

Data set [3] has as its system MCF7. Nature of the data set: in vitro IC50 against cancer cell lines, MCF7. The conditions noted are these: Homo sapiens, 72 h; MCF7, Breast Cancer, 3 days. It is filed as cell-based. On the procedure:
as §1

Data set [4] has as its system DMS153. Description: Resistance testing over 5 generations, DMS153. It is filed as cell-based, human. The conditions noted are these: DMS153, 5 generations. On the procedure:
as §2, §3

For data set [5], the system named is DMS153. Description: in vitro IC50 against cancer cell lines, DMS153. Format: cell-based. As to conditions: Homo sapiens, DMS-153, 72 h; DMS153, SCLC, 3 days. The protocol: as §1
Data set [6] concerns COLO-205. Description: Tumor cell proliferation, single agents and combinations, COLO-205. Format: cell-based, human. As to conditions: Homo sapiens. On the procedure: The 3 cell lines were treated as follows:
Day 1: Cells were plated in 96-well flat bottom plates (VWR, Mississauga, ON, Canada) and allowed to adhere overnight.
All treated and control cells were, therefore, exposed to a 1% DMSO concentration plus the desired concentration of COTI-2.
(§4) The CI, a numerical value calculated as described in equation A, also provides a quantitative measure of the extent of drug interaction. A CI of less than, equal to, and more than 1 indicates synergy, additivity, and antagonism, respectively. CI=(CAx/ICx,A)+(CB,x/ICx,B) Equation A: Where CA,x and CB,x, are the concentrations of drug A and drug B used in combination to achieve x % drug effect. ICx,A and ICx,B are the concentrations for single agents to achieve the same effect.

Data set [7] has as its system SNB-19. Description: IC50 human glioma/astrocytoma cell lines (alamar Blue), SNB-19. As to conditions: Homo sapiens, SNB-19.
Protocol: (§5) Cell lines were obtained from the Human Tissue Culture Collection (ATCC), grown and maintained under ATCC-specified conditions, and tested to ensure viability and lack of contaminating mycoplasma and common viruses. […] A viability stain (alamar Blue) was added to cells after 4-7 days of drug exposure (approximately 4 doublings of control cells; maximum cell density in wells approximately 80%), and assayed for total cellular metabolic activity (a function of population density of live cells) by absorbance.
Data set [8] in a line: Half-life and liver clearance rate by human liver microsomes (HLM) at 0.5 mg/mL. It is filed as in vitro ADME. As to conditions: liver microsomes. The protocol:
Sampling was conducted at 1, 20, 40, 60, 120,180 and 240 minutes and the remaining concentration of each compound was evaluated. A half life (T1/2) was calculated at each concentration, along with the rate of clearance by the liver (CL). The CL values compare favorably with published values for other marketed therapeutic agents under identical conditions. The half life of compounds according to the invention is therefore likely to be long enough to permit convenient dosing, while not being so long as to lead to accumulation in patients with potential long term toxicity effects.
The incubation mixture (500 μl) consisted of 100 μl of COTI-2, 150 μl of liver microsomal fractions (1.67 mg/ml rat/human) 35.5 μl of 100 mM phosphate buffer and 214.5 μl co-factor (NADPH, UDPGA, and MgCl2). The COTI-2 compound mixture and co-factor were pre-warmed at 37° C. for 5 min, with shaking at 150 rpm. The reaction was started by adding co-factor to the test compound mixture. The final concentration of the incubation mixture was as follows:
Blank incubation was performed with the co-factors. The sampling time points included 0 and 240 min for the blank sample, and 0, 20, 40, 60, 120, 180, and 240 min for COTI-2. At each time point 50 μl of sample was added to 150 μl of methanol to stop the reaction. The sample plates were centrifuged at 4200 rpm for 15 min and the supernatant was injected into LC-MS/MS for analysis. The percent compound remaining, rate of elimination (Kel), half-life (T1/2), and intrinsic clearance (CL) using standard calculations.
In general terms: Microsomes from liver hold many membrane-bound enzymes, among them those of drug oxidation.

In data set [9] the test system is HT29. Description: in vitro IC50 against cancer cell lines, HT29. As to conditions: Homo sapiens, HT-29, 72 h; HT29, Colorectal Cancer, 3 days. It is filed as cell-based. On the procedure:
as §1

The test system of data set [10] is HCT-116. Nature of the data set: CellTiter-Blue growth inhibition, single agents and combinations, HCT-116. Format: cell-based. The conditions noted are these: Homo sapiens, read-out: Mean IC50, single agent. The protocol:
The stock concentration was further diluted to 1 mM and added to a drug plate. […] Following dilution, 2 μl of test agent was transferred to the corresponding wells of a cell-containing 96-well plate with 198 μl of growth media. Tarceva® (erlotinib) was supplied by LC Labs (Woburn, Mass.).
Cells were grown to 70% confluency, trypsinized, counted, and seeded in 96-well flat-bottom plates at a final concentration of 2.5×10^3−5×10^3 cells/well (Day 0). […] Viable cell numbers were quantified by the CellTiter-Blue® cell viability assay, which measures the conversion of the indicator dye (resazurin) to resorufin, an indicator of cell viability. Experiments were repeated at least twice with the same concentrations to determine growth inhibitory activity.
as §4
For orientation: Resazurin is reduced to fluorescent resorufin, in cell work by metabolically active cells.

Data set [11] deals with U87. Description: IC50 human glioma/astrocytoma cell lines (alamar Blue), U87. The conditions noted are these: Homo sapiens, U-87 MG.
Protocol: as §5
The test system of data set [12] is HL60. Nature of the data set: in vitro IC50 against cancer cell lines, HL60. Format: cell-based. The conditions noted are these: Homo sapiens, HL-60, 72 h; HL60, Leukemia, 3 days. On the procedure: as §1
The subject of data set [13] is T47D. Nature of the data set: in vitro IC50 against cancer cell lines, T47D. It is filed as cell-based. As to conditions: Homo sapiens, 72 h, Breast Cancer, 3 days. The protocol: as §1
Setting [14] is: 10 μmol, read-out: In vitro T½ (converted).
The mark [15] stands for this setting: 100 μmol, read-out: In vitro T½ (converted).
Where [16] appears, read: average over 1, 10 and 100 μM, read-out: average half life (converted).
Where [17] appears, read: value before brackets, from 3 in vitro experiments, read-out: In vitro T½.

Take `CN1CCN(C(=S)NN=C2c3ncccc3-c3cccnc32)CC1` [COTI-219]: the “Actual outcome of in vitro testing” value in [1] is reported as “Active”. Besides, the “emerging resistance: ratio of IC50 to IC50 of parental generation” value in data set [2] and in data set [4] was “little to no emerging resistance” each time. The IC50 in data set [3] stood at 421 nM; in [5], 233 nM; in [6] (COLO-205, Colon, KRAS - WT, read-out: Mean IC50, single agent), 4.3 nM; in data set [7] it was 1990 nM; in data set [9] it was 403 nM; in data set [10] (HCT-116, Colon, KRAS - MUT, 72 h), 8.7 nM. In addition, the concentration for half-maximal inhibition (IC50) in [11] was 2370 nM; in data set [12], 374 nM; in data set [13], 367 nM. Further, the microsomal CLint at 1 µM in data set [8] (1 μM) was 4.2 µL/min/mg. In addition, the half-life at 1 µM in data set [8] (1 μM, read-out: T1/2) was 5.02 h; in [8] (1 μmol, read-out: In vitro T½), 5 h. Moreover, in data set [8] (10 μM), the microsomal CLint at 10 µM came to 3 µL/min/mg. Further, the half-life at 10 µM in [8] (10 μM, read-out: T1/2) was 7.01 h; in data set [8] (setting [14]), 7 h. This compound gave an intrinsic clearance (microsomal CLint) at 100 µM in data set [8] (100 μM) of 2.5 µL/min/mg. For the same compound, the half-life at 100 µM was 8.47 h in data set [8] (100 μM, read-out: T1/2) and 8.5 h in data set [8] (setting [15]). Besides, the half-life in data set [8] (setting [16]) is 6.8 h; in [8] (setting [17]), around 6.8 h.
For `S=C(N/N=C1/CCCc2cccnc21)N1CCN(c2ccccn2)CC1` [COTI-2], the “Actual outcome of in vitro testing” value in data set [1] is reported as “Active”. For the same compound, the “emerging resistance: ratio of IC50 to IC50 of parental generation” value in data set [2] and in data set [4] was “less than 1” each time. Further, the IC50 in data set [3] is 101 nM; in [5], 73 nM; in data set [6] (COLO 205, read-out: Mean IC50, single agent) it was 4.7 nM; in data set [7] it was 8 nM; in data set [9] it was 121 nM; in data set [10] (HCT-116, 72 h), 3.6 nM. Moreover, the IC50 in data set [11] was 48 nM; in data set [12] it was 236 nM; in data set [13] it was 221 nM. Besides, the microsomal CLint at 1 µM in [8] (1 μM) was 12 µL/min/mg. The half-life at 1 µM in [8] (1 μM, read-out: T1/2) is 1.7 h; in data set [8] (1 μmol, read-out: In vitro T½) it was 1.7 h. Also, the microsomal CLint at 10 µM in data set [8] (10 μM) came out at 4 µL/min/mg. Further, the half-life at 10 µM in data set [8] (10 μM, read-out: T1/2) is 4.76 h; in [8] (setting [14]), 4.8 h. The compound also came in with a microsomal CLint at 100 µM in data set [8] (100 μM) of 2 µL/min/mg. For the same compound, the half-life at 100 µM in [8] (100 μM, read-out: T1/2) is 11.4 h; in [8] (setting [15]), 11.4 h. Further, the half-life is 6 h in [8] (setting [16]) and around 6 h in data set [8] (setting [17]).

The record behind these values is patent publication US8138191B2, “Inhibitor compounds and cancer treatment methods” (Critical Outcome Technologies Inc., priority 2007, dated 2012).
